From patent US9586951B2 (FUJIFILM Corporation, priority 2013, dated 2017)

Target: T1, ATM (Homo sapiens, UniProt Q13315)
T1 construct: detecting phosphorylation of Chk2 in a human non-small cell lung cancer cell line NCI-H460 (ATCC company); host or cells: NCI-H460 human non-small cell lung cancer cells
Test: ATM inhibition test (phosphorylation of Chk2 generated by ionizing radiation, AlphaScreen SureFire)
Format: cell-based
Conditions: phosphorylated Chk2 in NCI-H460 cells, ionizing radiation 8Gy, 1 hour after test compound treatment; read-out: ATM inhibitory activity
Procedure: ATM inhibitory effects of a test compound were measured by detecting phosphorylation of Chk2 in a human non-small cell lung cancer cell line NCI-H460 (ATCC company). The level of phosphorylated Chk2 generated by an ionizing radiation was measured using AlphaScreen SureFire (TGR Biosciences).
The cells were seeded by 40000 cells per well in 96-well CellBIND® plates (Corning International Inc.), and incubated at 37° C. overnight in 5% CO2. […] 1 hour after a test compound treatment, half of the plates were irradiated with ionizing radiation 8Gy (Faxitron Bioptics, LLC, RX-650 type). The plates irradiated with ionizing radiation and the plates not being irradiated with ionizing radiation were incubated at 37° C. for 1 hour in 5% CO2. […] Subsequent operations were performed according to the instruction book of AlphaScreen SureFire. […] The inhibition ratio was calculated by the following equation. Inhibition ratio (%)=((signal of drug untreated wells in the plates irradiated with ionizing radiation−signal of drug treated wells in the plates irradiated with ionizing radiation)/(signal of drug untreated wells in the plates irradiated with ionizing radiation−signal of drug untreated wells in the plates not being irradiated with ionizing radiation))×100

T1 sequence (Q13315 whole entry): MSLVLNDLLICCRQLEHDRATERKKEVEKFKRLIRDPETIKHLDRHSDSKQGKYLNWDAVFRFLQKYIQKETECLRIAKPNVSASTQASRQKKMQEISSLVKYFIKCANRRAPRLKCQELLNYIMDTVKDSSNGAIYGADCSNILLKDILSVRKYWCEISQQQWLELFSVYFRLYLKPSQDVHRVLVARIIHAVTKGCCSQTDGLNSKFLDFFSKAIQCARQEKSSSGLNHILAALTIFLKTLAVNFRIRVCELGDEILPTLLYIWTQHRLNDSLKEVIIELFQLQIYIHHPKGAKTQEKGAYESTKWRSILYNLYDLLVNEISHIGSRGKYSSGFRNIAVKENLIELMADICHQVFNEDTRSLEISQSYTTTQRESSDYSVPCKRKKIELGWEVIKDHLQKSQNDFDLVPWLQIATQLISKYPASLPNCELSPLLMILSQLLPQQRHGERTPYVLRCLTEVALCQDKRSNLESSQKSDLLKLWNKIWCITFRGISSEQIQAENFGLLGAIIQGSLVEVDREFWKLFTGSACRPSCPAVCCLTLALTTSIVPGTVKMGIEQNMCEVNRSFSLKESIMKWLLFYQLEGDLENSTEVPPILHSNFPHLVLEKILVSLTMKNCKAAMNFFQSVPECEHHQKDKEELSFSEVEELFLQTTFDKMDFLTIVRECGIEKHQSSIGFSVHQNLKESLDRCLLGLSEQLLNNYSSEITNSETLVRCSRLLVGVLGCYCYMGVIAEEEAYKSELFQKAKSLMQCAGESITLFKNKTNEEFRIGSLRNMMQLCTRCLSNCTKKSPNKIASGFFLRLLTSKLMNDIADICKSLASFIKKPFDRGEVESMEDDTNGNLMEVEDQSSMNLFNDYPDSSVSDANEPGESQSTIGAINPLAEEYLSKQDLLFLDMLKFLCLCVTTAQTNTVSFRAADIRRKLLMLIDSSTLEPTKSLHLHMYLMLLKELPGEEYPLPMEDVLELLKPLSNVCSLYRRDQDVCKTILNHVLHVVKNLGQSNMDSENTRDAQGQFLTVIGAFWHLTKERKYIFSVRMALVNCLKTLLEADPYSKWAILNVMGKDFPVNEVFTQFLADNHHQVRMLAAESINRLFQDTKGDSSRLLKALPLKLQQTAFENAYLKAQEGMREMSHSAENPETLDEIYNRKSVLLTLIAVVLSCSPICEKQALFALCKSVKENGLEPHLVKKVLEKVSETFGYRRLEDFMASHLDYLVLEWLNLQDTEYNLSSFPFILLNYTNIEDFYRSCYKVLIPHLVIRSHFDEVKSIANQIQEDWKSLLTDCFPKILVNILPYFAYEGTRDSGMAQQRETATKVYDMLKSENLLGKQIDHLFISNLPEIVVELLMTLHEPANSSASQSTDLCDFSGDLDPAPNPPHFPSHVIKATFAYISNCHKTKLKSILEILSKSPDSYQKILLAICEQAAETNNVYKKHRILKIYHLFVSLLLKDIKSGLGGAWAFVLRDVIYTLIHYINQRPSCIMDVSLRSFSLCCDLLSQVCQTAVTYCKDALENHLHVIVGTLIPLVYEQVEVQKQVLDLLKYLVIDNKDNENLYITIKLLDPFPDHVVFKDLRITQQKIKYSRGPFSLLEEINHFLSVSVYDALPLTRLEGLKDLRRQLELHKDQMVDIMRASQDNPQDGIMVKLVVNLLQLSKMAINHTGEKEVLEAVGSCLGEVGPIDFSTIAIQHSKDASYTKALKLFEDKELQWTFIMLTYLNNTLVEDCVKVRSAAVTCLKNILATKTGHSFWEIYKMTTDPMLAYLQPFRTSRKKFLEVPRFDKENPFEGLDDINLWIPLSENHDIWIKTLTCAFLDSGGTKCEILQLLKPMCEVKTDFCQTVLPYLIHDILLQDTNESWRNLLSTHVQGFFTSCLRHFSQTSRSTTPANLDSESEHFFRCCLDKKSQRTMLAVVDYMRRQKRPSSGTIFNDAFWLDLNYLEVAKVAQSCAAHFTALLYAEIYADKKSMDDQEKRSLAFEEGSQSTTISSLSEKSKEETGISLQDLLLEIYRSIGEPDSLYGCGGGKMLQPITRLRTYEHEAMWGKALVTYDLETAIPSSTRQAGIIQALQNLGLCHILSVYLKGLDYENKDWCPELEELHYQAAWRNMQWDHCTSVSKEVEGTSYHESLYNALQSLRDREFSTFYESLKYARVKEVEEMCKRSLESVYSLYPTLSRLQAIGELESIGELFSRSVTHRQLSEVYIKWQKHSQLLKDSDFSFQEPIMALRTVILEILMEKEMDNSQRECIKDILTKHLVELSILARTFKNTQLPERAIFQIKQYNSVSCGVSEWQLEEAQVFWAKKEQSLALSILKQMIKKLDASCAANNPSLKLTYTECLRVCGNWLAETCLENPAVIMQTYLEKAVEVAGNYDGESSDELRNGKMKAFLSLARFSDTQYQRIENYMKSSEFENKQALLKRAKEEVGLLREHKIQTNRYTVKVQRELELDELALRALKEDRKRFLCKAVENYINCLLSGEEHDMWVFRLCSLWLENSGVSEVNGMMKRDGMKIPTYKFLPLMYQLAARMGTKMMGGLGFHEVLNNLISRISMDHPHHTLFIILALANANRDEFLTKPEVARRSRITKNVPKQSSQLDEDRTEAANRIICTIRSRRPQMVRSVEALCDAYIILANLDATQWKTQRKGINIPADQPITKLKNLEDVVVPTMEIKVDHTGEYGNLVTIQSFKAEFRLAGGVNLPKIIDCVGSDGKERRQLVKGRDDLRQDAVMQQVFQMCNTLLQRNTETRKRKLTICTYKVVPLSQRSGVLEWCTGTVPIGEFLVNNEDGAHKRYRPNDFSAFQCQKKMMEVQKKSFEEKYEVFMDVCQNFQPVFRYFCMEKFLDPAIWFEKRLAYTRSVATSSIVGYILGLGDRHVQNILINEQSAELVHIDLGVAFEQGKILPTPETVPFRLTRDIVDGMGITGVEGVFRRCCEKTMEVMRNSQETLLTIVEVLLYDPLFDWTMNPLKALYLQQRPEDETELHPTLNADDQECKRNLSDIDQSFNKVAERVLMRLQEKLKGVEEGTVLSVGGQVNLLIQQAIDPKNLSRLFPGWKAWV

Row | IC50 [nM] | SMILES
1 | 100 to 500 | CC(Nc1ccc2c(c1)Cc1cccc(-c3cc(N4CCOCC4)cc(=O)[nH]3)c1O2)c1cccc(F)n1 (single isomer, unassigned) [Example 2-14-87-2, 6-(7-((1-(6-fluoropyridin-2-yl)ethyl)amino)-9H-xanthen-4-yl)-4-morpholinopyridin-2(1H)-one]
2 | 100 to 500 | O=c1cc(N2CCOCC2)cc(-c2cccc3c2Sc2ccc(NC4CCN(C5CCOCC5)C4)cc2S3)[nH]1 (stereo not drawn) [Example 1-24-13, 4-Morpholino-6-(7-((1-(tetrahydro-2H-pyran-4-yl)pyrrolidin-3-yl)amino)thianthren-1-yl)pyridin-2 (1H)-one]
3 | 100 to 500 | COCC(CN1CCCCC1)Nc1ccc2c(c1)Sc1cccc(-c3cc(N4CCOCC4)cc(=O)[nH]3)c1S2 (stereo not drawn) [Example 1-17-2, 6-(7-((1-Methoxy-3-(piperidin-1-yl)propan-2-yl)amino)thianthren-1-yl)-4-morpholinopyridin-2(1H)-one]
4 | 100 to 500 | O=C1CCN1c1cncc(CNc2ccc3c(c2)Sc2cccc(-c4cc(N5CCOCC5)cc(=O)[nH]4)c2O3)c1 [Example 4-8-16, 4-Morpholino-6-(8-(((5-(2-oxoazetidin-1-yl)pyridin-3-yl)methyl)amino)phenoxathiin-4-yl)pyridin-2 (IH)-one]
5 | 100 to 500 | CC(Nc1ccc2c(c1)Cc1cccc(-c3cc(N4CCOCC4)cc(=O)[nH]3)c1O2)c1cncc(Cl)c1 (stereo not drawn) [Example 2-14-27, 6-(7-((1-(5-Chloropyridin-3-yl)ethyl)amino)-9H-xanthen-4-yl)-4-morpholino pyridin-2(1H)-one]
6 | 500 to 2000 | Cc1nccc(CNc2ccc3c(c2)Cc2cccc(-c4cc(N5CCOCC5)cc(=O)[nH]4)c2O3)n1 [Example 2-14-68, 6-(7-(((2-Methylpyrimidin-4-yl)methyl)amino)-9H-xanthen-4-yl)-4-morpholino pyridin-2(1H)-one]
7 | 100 to 500 | N#Cc1ccc(CNc2ccc3c(c2)Sc2cccc(-c4cc(N5CCOCC5)cc(=O)[nH]4)c2S3)s1 [Example 1-12-51, 5-(((6-(4-Morpholino-6-oxo-1,6-dihydropyridin-2-yl)thianthren-2-yl)amino)methyl)thiophene-2-carbonitrile]
8 | 100 to 500 | O=c1cc(N2CCOCC2)cc(-c2ccc(F)c3c2Oc2ccc(NCc4cc(C5CC5)ccn4)cc2C3)[nH]1 [Example 2-44-2, 6-(7-(((4-Cyclopropylpyridin-2-yl)methyl)amino)-1-fluoro-9H-xanthen-4-yl)-4-morpholinopyridin-2(1H)-one]
9 | 500 to 2000 | CC(Nc1ccc2c(c1)Cc1cccc(-c3cc(N4CCOCC4)cc(=O)[nH]3)c1O2)c1cccnc1 (single isomer, unassigned) [Example 2-36-1, 4-morpholino-6-(7-((1-(pyridin-3-yl)ethyl)amino)-9H-xanthen-4-yl)pyridin-2(1H)-one]
10 | 100 to 500 | Cc1ccnc(C(C)Nc2ccc3c(c2)Sc2cccc(-c4cc(N5CCOCC5)cc(=O)[nH]4)c2S3)n1 (single isomer, unassigned) [Example 1-12-144-2, 6-(7-((1-(4-methylpyrimidin-2-yl)ethyl)amino)thianthren-1-yl)-4-morpholinopyridin-2(1H)-one]
11 | 100 to 500 | COc1ncc(CNc2ccc3c(c2)Sc2cccc(-c4cc(N5CCOCC5)cc(=O)[nH]4)c2S3)cn1 [Example 1-12-10, 6-(7-(((2-Methoxypyrimidin-5-yl)methyl)amino)thianthren-1-yl)-4-morpholino pyridin-2(1H)-one]
12 | 100 to 500 | O=c1cc(N2CCOCC2)cc(-c2cccc3c2Oc2ccc(NC4CCN(CC(O)c5ccccc5)CC4)cc2C3)[nH]1 (stereo not drawn) [Example 2-30-13, 6-(7-((1-(2-Hydroxy-2-phenylethyl)piperidin-4-yl)amino)-9H-xanthen-4-yl)-4-morpholino pyridin-2(1H)-one]
13 | 100 to 500 | COCCNCC(Nc1ccc2c(c1)Sc1cccc(-c3cc(N4CCOCC4)cc(=O)[nH]3)c1S2)c1cccc(C)n1 (stereo not drawn) [Example 1-34-2, 6-(7-((2-((2-Methoxyethyl)amino)-1-(6-methylpyridin-2-yl)ethyl)amino)thianthren-1-yl)-4-morpholino pyridin-2 (1H)-one]
14 | 100 to 500 | O=c1cc(N2CCOCC2)cc(-c2cccc3c2Oc2ccc(NC4CCN(Cc5ccoc5)CC4)cc2C3)[nH]1 [Example 2-28-28, 6-(7-((1-(Furan-3-ylmethyl)piperidin-4-yl)amino)-9H-xanthen-4-yl)-4-morpholino pyridin-2(1H)-one]
15 | 100 to 500 | COc1cc(OC)nc(CN2CCC(Nc3ccc4c(c3)Cc3cccc(-c5cc(N6CCOCC6)cc(=O)[nH]5)c3O4)CC2)n1 [Example 2-28-20, 6-(7-((1-((4,6-Dimethoxypyrimidin-2-yl)methyl)piperidin-4-yl)amino)-9H-xanthen-4-yl)-4-morpholino pyridin-2(1H)-one]
16 | 100 to 500 | O=c1cc(N2CCOCC2)cc(-c2cccc3c2Oc2ccc(NC4CCN(CCc5ccccc5Cl)CC4)cc2C3)[nH]1 [Example 2-30-9, 6-(7-((1-(2-Chlorophenethyl)piperidin-4-yl)amino)-9H-xanthen-4-yl)-4-morpholino pyridin-2(1H)-one]
17 | 100 to 500 | CC(C)(CN1CCOCC1)Nc1ccc2c(c1)Sc1cccc(-c3cc(N4CCOCC4)cc(=O)[nH]3)c1S2 [Example 1-46-2, 6-(7-((2-methyl-1-morpholinopropan-2-yl)amino)thianthren-1-yl)-4-morpholinopyridin-2(1H)-one]
18 | 100 to 500 | Cc1cccc(C(Nc2ccc3c(c2)Sc2cccc(-c4cc(N5CCOCC5)cc(=O)[nH]4)c2S3)C2CCNC2)n1 (stereo not drawn) [Example 1-20-14, 6-(7-(((6-Methylpyridin-2-yl)(pyrrolidin-3-yl)methyl)amino)thianthren-1-yl)-4-morpholino pyridin-2(1H)-one]
19 | 100 to 500 | COC[C@H](CN1CCOCC1)Nc1ccc2c(c1)Sc1cccc(-c3cc(N4CCOCC4)cc(=O)[nH]3)c1O2 [Example 10-6, (S)-6-(8-((1-methoxy-3-morpholinopropan-2-yl)amino)phenoxathiin-4-yl)-4-morpholinopyridin-2(1H)-one]
20 | 100 to 500 | Cc1ccc(CNc2ccc3c(c2)Cc2ccnc(-c4cc(N5CCOCC5)cc(=O)[nH]4)c2O3)cn1 [Example 2-42-4, 6-(7-(((6-Methylpyridin-3-yl)methyl)amino)-5H-chromeno[2,3-c]pyridin-1-yl)-4-morpholinopyridin-2(1H)-one]
21 | 100 to 500 | CCNc1cccc(CNc2ccc3c(c2)Cc2cccc(-c4cc(N5CCOCC5)cc(=O)[nH]4)c2O3)n1 [Example 2-6-2, 6-(7-(((6-(Ethylamino)pyridin-2-yl)methyl)amino)-9H-xanthen-4-yl)-4-morpholinopyridin-2(1H)-one]
22 | 100 to 500 | Cc1cnc(C(CF)Nc2ccc3c(c2)Cc2cccc(-c4cc(N5CCOCC5)cc(=O)[nH]4)c2O3)nc1 (stereo not drawn) [Example 2-14-83, 6-(7-((2-Fluoro-1-(5-methylpyrimidin-2-yl)ethyl)amino)-9H-xanthen-4-yl)-4-morpholino pyridin-2(1H)-one]
23 | 100 to 500 | O=c1cc(N2CCOCC2)cc(-c2cccc3c2Oc2ccc(NCc4cccc(C(F)(F)F)c4)cc2C3)[nH]1 [Example 2-3-14, 4-Morpholino-6-(7-((3-(trifluoromethyl)benzyl)amino)-9H-xanthen-4-yl) pyridin-2(1H)-one]
24 | 100 to 500 | CCCC(Nc1ccc2c(c1)Sc1cccc(-c3cc(N4CCOCC4)cc(=O)[nH]3)c1S2)[C@H](C)N (stereo partly drawn) [Example 1-20-2, 6-(7-(((2S)-2-Aminohexan-3-yl)amino)thianthren-1-yl)-4-morpholino pyridin-2(1H)-one]
25 | 500 to 2000 | N#Cc1ccc(CCN2CCC(Nc3ccc4c(c3)Cc3cccc(-c5cc(N6CCOCC6)cc(=O)[nH]5)c3O4)CC2)cc1 [Example 2-30-19, 4-(2-(4-((5-(4-Morpholino-6-oxo-1,6-dihydropyridin-2-yl)-9H-xanthen-2-yl)amino)piperidin-1-yl)ethyl) benzonitrile]
26 | 500 to 2000 | O=c1cc(N2CCOCC2)cc(-c2cccc3c2Sc2ccc(NCCN4CCC(O)CC4)cc2S3)[nH]1 [Example 1-10-8, 6-(7-((2-(4-Hydroxypiperidin-1-yl)ethyl)amino)thianthren-1-yl)-4-morpholino pyridin-2(1H)-one]
27 | 100 to 500 | O=c1cc(N2CCOCC2)cc(-c2cccc3c2Oc2ccc(NCCN4CCOCC4)cc2S3)[nH]1 [Example 4-11, 4-Morpholino-6-(8-((2-morpholinoethyl)amino)phenoxathiin-4-yl)pyridin-2(1H)-one]
28 | 100 to 500 | COc1ncccc1CNc1ccc2c(c1)Cc1cccc(-c3cc(N4CCOCC4)cc(=O)[nH]3)c1O2 [Example 2-13-12, 6-(7-(((2-Methoxypyridin-3-yl)methyl)amino)-9H-xanthen-4-yl)-4-morpholino pyridin-2(1H)-one]
29 | 500 to 2000 | COc1ccc(CNc2ccc3c(c2)Cc2cc(C)cc(-c4cc(N5CCOCC5)cc(=O)[nH]4)c2O3)cn1 [Example 2-49-1, 6-(7-(((6-Methoxypyridin-3-yl)methyl)amino)-2-methyl-9H-xanthen-4-yl)-4-morpholinopyridin-2(1H)-one]
30 | < 100 | Cc1ccc(C(Nc2ccc3c(c2)Sc2cccc(-c4cc(N5CCOCC5)cc(=O)[nH]4)c2S3)C2CCN(C)C2)nc1 (single isomer, unassigned) [Example 10-3-5]
